Measurements reported in US20240415786A1, “COMPOSITIONS AND METHODS USING AN AUTOPHAGY INDUCER TO ENHANCE INTERMITTENT FASTING” (SOCIETE DES PRODUITS NESTLE S.A., priority 2021, published 2024).

Assays:
[1] = system: C. elegans; experiment: Worm survival assay in microfluidics; assay type: in vivo; settings: thymol 50 μM, worms treated in microfluidics (conditions mimicking IF), vs vehicle, log rank test
Protocol: A worm suspension is first injected into a microfluidic device. The geometry of the device is optimized for retaining inside the worm culture chamber only adult worms by simply selecting the correct flow rate for the sample injection. Upon isolation of a defined worm population inside the chamber, worms are cultured and treated on-chip with thymol at controlled temperature of 20° C. Worm culture is maintained in the chamber by the perfusion of E. coli. The microfluidic chip is integrated onto an inverted microscope integrated with a camera that continuously records videos (every 10 hours). Images are longitudinally analyzed by different parameters that include readouts of body bends frequency, velocity, curvature and amplitude of the movement at the head, tail and middle of the body, which automatically provide information about worms health span and vitality.

[2] = system: C. elegans; experiment: Worm survival assay on solid agar plate; assay type: in vivo; settings: thymol 50 M (so in the source), solid agar plates, n=60 per group, vs vehicle (DMSO 1%), log rank test
Protocol: C. elegans strains were cultured at 20° C. on nematode growth media agar plates seeded with E. coli strain OP50. Thymol was dissolved in DMSO and added at the indicated concentrations just before pouring the plates. Worms were exposed to compounds during the full life from eggs until death. To ensure a permanent exposure to the compound, plates were changed twice a week. The control population was treated with the corresponding concentration of DMSO at 1%. For lifespan measurements, parental F0 L4 worms were grown to reach adulthood and lay eggs on the treatment plates. The derived F1 worms were therefore exposed to compounds during the full life from eggs until death. Adults were daily scored manually as dead or alive. A worm was considered dead if it was not moving spontaneously and it was not responding to a touch on the head. The control population was treated with the corresponding concentration of DMSO at 1%.

Cc1ccc(C(C)C)c(O)c1 [thymol]
effect on lifespan [1]: increases lifespan
effect on lifespan [2]: no significant effects on lifespan
